Drawing on the RepoRT retention time repository (doi:10.1016/j.scitotenv.2015.08.078), this text covers LC retention time for 57 compounds.

SMILES strings stand for the structures. Counter-ions that a name gives are not always drawn.

The nature of the data set: RP, Waters ACQUITY UPLC BEH C18, 100 × 2.1 mm, 1.7 µm, 0.3 mL/min, estimated dead time 0.73 min; A: water + 0.1% formic acid, pH 3; B: methanol + 0.1% formic acid, pH 3; gradient (min/%B) 0/10 14/90 16/90 18/10. The following applies: stereoisomer not certain.
On to `CC(N)Cc1ccc2c(c1)OCO2` (configuration not stated) [MDA], for which the LC retention time was 3.62 min. For the compound `CCNc1nc(NC(C)(C)C)nc(SC)n1` [Terbutryn], the LC retention time was 9.91 min. As to `CN1C(=O)C(O)N=C(c2ccccc2)c2cc(Cl)ccc21` (configuration not stated) [Temazepam], the LC retention time was 10.1 min. The same measure for `CCCC1OC2CC3C4CCC5=CC(=O)C=CC5(C)C4C(O)CC3(C)C2(C(=O)CO)O1` (configuration not stated) [Budesonide]: 10.9 min; for `COC(=O)c1c(Cl)nn(C)c1S(=O)(=O)NC(=O)Nc1nc(OC)cc(OC)n1` [Halosulfuron methyl]: 7.16 min; for `O=[N+]([O-])c1cnc(CO)n1CCO` [Hydroxymetronidazole (MNZOH)]: 1.9 min. Turning to `CC(C)OP(=O)(OC(C)C)SCc1ccccc1` [Iprobenfos], the LC retention time was 11.5 min.

Consider `CC1(C)SC2C(NC(=O)C(N)c3ccccc3)C(=O)N2C1C(=O)O` (configuration not stated) [Ampicillin], for which the LC retention time is 4.95 min. With `CON=C(C(=O)NC1C(=O)N2C(C(=O)O)=C(COC(N)=O)CSC12)c1ccco1` (configuration not stated) [Cefuroxime], the LC retention time was 9.51 min. Consider `COc1cc2c(c3oc(=O)c4c(c13)CCOC4=O)C1C=COC1O2` (configuration not stated) [Aflatoxin G1], for which the LC retention time is 7.15 min. The same measure for `CCNc1nc(NCC)nc(SC)n1` [Simetryn]: 8.78 min; for `CC(C)Nc1nc(N)nc(Cl)n1` [Deetheylatrazine]: 6.06 min. As to `O=C(Nc1ccccc1)N(Cc1ccc(Cl)cc1)C1CCCC1` [Pencycuron], the LC retention time is 12.2 min. The same measure for `O=C1OCCN1N=Cc1ccc([N+](=O)[O-])o1` [Furazolidone]: 2.96 min; for `Nc1cnn(-c2ccccc2)c(=O)c1Cl` [Chloridazon (Pyrazon)]: 4.82 min. The same measure for `COP(=S)(OC)Oc1ccc(S(C)=O)c(C)c1` (configuration not stated) [Fenthion sulfoxide]: 7.8 min; for `CC(C(=O)O)c1cccc(C(=O)c2ccccc2)c1` (configuration not stated) [Ketoprofen]: 10.3 min; for `CCOc1ccc2c(c1)C(C)=CC(C)(C)N2` [Ethoxyquin]: 9.64 min. With `CCOP(=S)(OCC)Oc1ccc(=O)n(-c2ccccc2)n1` [Pyridaphenthion], the LC retention time was 12.1 min. The same measure for `CN=C(NC#N)NCCSCc1nc[nH]c1C` [Cimetidine]: 2.28 min; for `CC1CN(C2CCCCCCCCCCC2)CC(C)O1` (configuration not stated) [Dodemorph]: 13.4 min. The same measure for `CC(C)(C)NCC(O)c1ccc(O)c(CO)c1` (configuration not stated) [Salbutamol]: 2.03 min; for `CCOC(=O)C(Cl)Cc1cc(-n2nc(C)n(C(F)F)c2=O)c(F)cc1Cl` (configuration not stated) [Carfentrazone-ethyl]: 11.4 min. To `Nc1nc(N)nc(NC2CC2)n1` [Cyromazine] belongs 1.45 min; to `CON=C(Cc1cccnc1)c1ccc(Cl)cc1Cl` (single isomer, unassigned; isomer 1) [Pyrifenox ISOMER 1], 10.2 min; to `CCOC(=O)C1CC(=O)C(=C(O)C2CC2)C(=O)C1` (configuration not stated) [Trinexapac-ethyl], 7.6 min. For the compound `O=C(O)COC(=O)Cc1ccccc1Nc1c(Cl)cccc1Cl` [Aceclofenac], the LC retention time was 10.3 min. To `CC(C)Cc1ccc(C(C)C(=O)O)cc1` (configuration not stated) [Ibuprofen] belongs 12.4 min; to `CC1=NNC(=O)N(N=Cc2cccnc2)C1` [Pymetrozine], 2.25 min; to `CCNc1nc(Cl)nc(NC(C)C)n1` [Atrazine], 9.34 min. The same measure for `CN(C)CCCN1c2ccccc2Sc2ccc(Cl)cc21` [Chlorpromazine]: 10.3 min; for `CC(C)c1c(C(=O)Nc2ccccc2)c(-c2ccccc2)c(-c2ccc(F)cc2)n1CCC(O)CC(O)CC(=O)O` (configuration not stated) [Atorvastatin]: 12 min; for `CC(C)NCC(O)c1cc(Cl)c(N)c(Cl)c1` (configuration not stated) [Clenproperol]: 4.05 min. Consider `CN1CCC23c4c5ccc(O)c4OC2C(O)C=CC3C1C5` (configuration not stated) [Morphine], for which the LC retention time was 2.86 min. For `Cc1c(Nc2ncccc2C(=O)O)cccc1C(F)(F)F` [Flunixin], the LC retention time is 9.31 min. The same measure for `COc1cc(OC)c(C(=O)CCCN2CCCC2)c(OC)c1` [Buflomedil HCl]: 5 min. For the compound `CCC1OC(=O)C(C)C(OC2CC(C)(OC)C(O)C(C)O2)C(C)C(OC2OC(C)CC(N(C)C)C2O)C(C)(O)CC(C)C(=O)C(C)C(O)C1(C)O` (configuration not stated) [Erythromycin], the LC retention time was 9.41 min. Consider `CC1=C(C(=O)Nc2ccccc2)SCCO1` [Carboxin], for which the LC retention time was 7.77 min.

Consider `CC1CC2C3CC(F)C4=CC(=O)C=CC4(C)C3(F)C(O)CC2(C)C1(O)C(=O)CO` (configuration not stated) [Flumethasone], for which the LC retention time was 9.72 min. Regarding `CC(C)(C)NCC(O)c1cc(Cl)c(N)c(C(F)(F)F)c1` (configuration not stated) [Mabuterol], the LC retention time is 6.05 min. Take `CCOC(=O)c1cn2nc(OP(=S)(OCC)OCC)cc2nc1C` [Pyrazophos]: the LC retention time is 11.9 min. To `CCOP(=S)(OCC)SCCS(=O)(=O)CC` [Disulfoton-sulfone] belongs 8.76 min. To `CC(C)c1ncc([N+](=O)[O-])n1C` [Ipronidazole (IPZ)] belongs 5.42 min. The same measure for `C=CC1(C)CC(OC(=O)CSCCN(CC)CC)C2(C)C(C)CCC3(CCC(=O)C32)C(C)C1O` (configuration not stated) [Tiamulin]: 9.22 min; for `CCOc1ccccc1OS(=O)(=O)NC(=O)Nc1nc(OC)cc(OC)n1` [Ethoxysulfuron]: 8.41 min; for `CCc1nn(C)c(C(=O)NCc2ccc(C(C)(C)C)cc2)c1Cl` [Tebufenpyrad]: 13.2 min.

Regarding `CCOc1ccc(C(C)(C)COCc2cccc(Oc3ccccc3)c2)cc1` [Ethofenprox], the LC retention time is 15.1 min. Take `CC(CN1c2ccccc2Sc2ccccc21)N(C)C` (configuration not stated) [Promethazine]: the LC retention time is 9.06 min.

`CNC(=O)Oc1cc(C)c(S(C)(=O)=O)c(C)c1` [Methiocarb sulfone]: the LC retention time was 4.46 min. In the case of `CCC1OC(=O)C(C)C(OC2CC(C)(OC)C(O)C(C)O2)C(C)C(OC2OC(C)CC(N(C)C)C2O)C(C)(O)CC(C)CN(C)C(C)C(O)C1(C)O` (configuration not stated) [Azithromycin], the LC retention time is 6.2 min. `Cc1cccc(C)c1N(C(=O)CCl)C1CCOC1=O` (configuration not stated) [Ofurace]: the LC retention time was 7.69 min. For `O=C(NC(=O)c1c(F)cccc1F)Nc1ccc(CON=C(c2ccc(Cl)cc2)C2CC2)cc1` [Flucycloxuron], the LC retention time was 13.4 min.

In the case of `COc1cc(OC)nc(NC(=O)NS(=O)(=O)N(C)S(C)(=O)=O)n1` [Amidosulfuron], the LC retention time is 4.59 min. `CCCCNC(=O)n1c(NC(=O)OC)nc2ccccc21` [Benomyl]: the LC retention time was 11.6 min.

For the compound `OC(Cn1cncn1)(c1ccc(F)cc1)c1ccccc1F` (configuration not stated) [Flutriafol], the LC retention time was 8.93 min.

Consider `COCCN(C(=O)CCl)c1c(C)cccc1C` [Dimethachlor], for which the LC retention time is 9.39 min.

In the case of `CCOP(=S)(OCC)ON=C(C#N)c1ccccc1` [Phoxim], the LC retention time was 11.9 min.
